Assay results published in patent US20250236614A1, “BICYCLIC TETRAHYDROAZEPINE DERIVATIVES” (Hoffmann-La Roche Inc., priority 2022, published 2025).
pIC50: −log10 of the molar value.

What follows are compounds tested against DGK ζ kinase (Homo sapiens, UniProt Q13574) (assay: In vitro DGK inhibition assay (ADP Glo) run by Reaction Biology Corp., DGK zeta). Conditions: isomer A, 2 nM kinase, 50 μM ATP, 500 uM DLG, 10-dose, 3-fold dilution starting at 1 μM, read-out: DGKzeta IC50.
Format: biochemical
Procedure: DGK α and ζ kinase use ATP to phosphorylate the substrate 1,2-dilauroyl-sn-glycerol (DLG). ATP is converted to ADP as a result of this enzymatic reaction.
After the kinase reaction, an ATP-depletion reagent is added to terminate the kinase reaction and deplete any remaining ATP, leaving only ADP. Second, a detection reagent is added to simultaneously convert ADP to ATP and allow the newly synthesized ATP to be converted to light using a coupled luciferase/luciferin reaction.
DGK α and ζ kinase ADP Glo assays were ran by Reaction Biology Corp., 1 Great Valley Parkway, Suite 2, Malverm, 19355, PA, USA. Information provided by the service provider are the following: DGK α and ζ kinases were used at 2 nM final concentration. Reactions were carried out at 50 μM ATP. 500 uM of the substrate DLG (Dilauroyl-sn-glycerol) was used. Compounds were received at 10 mM DMSO stock solution and were tested in 10-dose IC50 duplicate with 3-fold serial dilution starting at 1 μM. A control compound, Calphostin C, was tested in 10-dose IC50 with 3-fold serial dilution starting at 100 μM.

DGK ζ kinase, sequence (Q13574 whole entry): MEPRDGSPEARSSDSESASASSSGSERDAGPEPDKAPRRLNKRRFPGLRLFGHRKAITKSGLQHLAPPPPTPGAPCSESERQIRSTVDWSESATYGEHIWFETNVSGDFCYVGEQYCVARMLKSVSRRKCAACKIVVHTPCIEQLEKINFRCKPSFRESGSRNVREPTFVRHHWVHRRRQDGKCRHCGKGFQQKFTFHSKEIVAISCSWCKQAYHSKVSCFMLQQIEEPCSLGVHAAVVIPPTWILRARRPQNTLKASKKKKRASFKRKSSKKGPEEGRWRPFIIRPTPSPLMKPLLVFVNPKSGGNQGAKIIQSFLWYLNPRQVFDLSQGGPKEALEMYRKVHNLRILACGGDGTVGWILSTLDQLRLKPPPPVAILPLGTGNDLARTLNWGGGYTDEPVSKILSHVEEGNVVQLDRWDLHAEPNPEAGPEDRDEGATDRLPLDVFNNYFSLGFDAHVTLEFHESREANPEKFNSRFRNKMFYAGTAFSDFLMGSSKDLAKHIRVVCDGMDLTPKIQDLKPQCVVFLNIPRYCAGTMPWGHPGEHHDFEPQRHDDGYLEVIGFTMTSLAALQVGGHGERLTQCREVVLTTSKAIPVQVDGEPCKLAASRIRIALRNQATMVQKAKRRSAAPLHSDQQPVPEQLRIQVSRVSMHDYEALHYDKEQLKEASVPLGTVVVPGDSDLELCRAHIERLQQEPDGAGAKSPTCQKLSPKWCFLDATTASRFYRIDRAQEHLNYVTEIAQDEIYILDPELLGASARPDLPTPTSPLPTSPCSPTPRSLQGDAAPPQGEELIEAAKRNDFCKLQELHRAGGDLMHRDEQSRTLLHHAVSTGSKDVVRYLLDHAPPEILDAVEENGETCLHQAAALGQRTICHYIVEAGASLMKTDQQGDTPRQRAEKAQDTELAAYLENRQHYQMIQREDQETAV

| pIC50 | Compound |
| --- | --- |
| 7.10 | CC(C)(C#N)c1nnc(-c2cc3c(cc2F)C(F)(F)CC(N)C(=O)N3Cc2ccc(-n3cc(C(F)(F)F)cn3)cc2)o1 (racemic) [Example 33, 2-[5-[(3S)-3-amino-5,5,7-trifluoro-2-oxo-1-[[4-[4-(trifluoromethyl)pyrazol-1-yl]phenyl]methyl]-3,4-dihydro-1-benzazepin-8-yl]-1,3,4-oxadiazol-2-yl]-2-methyl-propanenitrile and 2-[5-[(3R)-3-amino-5,5,7-trifluoro-2-oxo-1-[[4-[4-(trifluoromethyl)pyrazol-1-yl]phenyl]methyl]-3,4-dihydro-1-benzazepin-8-yl]-1,3,4-oxadiazol-2-yl]-2-methyl-propanenitrile] |
| 7.31 | CC(C)(C)c1nnc(-c2cc3c(cc2F)C(F)(F)C[C@@H](N)C(=O)N3Cc2ccc(OC3CCCC3)cc2)o1 (single isomer, unassigned) [Example 7] |
| 7.49 | COc1ccc(-c2ccc(CN3C(=O)[C@H](N)CC(F)(F)c4cc(F)c(-c5nnc(C(C)(C)C#N)o5)cc43)cc2)cc1 (single isomer, unassigned) [Example 9] |
| 7.14 | CC(C)(C#N)c1nnc(-c2cc3c(cc2F)C(F)(F)C[C@@H](N)C(=O)N3Cc2ccc(-c3ccc(C(F)(F)F)cn3)cc2)o1 (single isomer, unassigned) [Example 12] |

The remaining lines, values behind:

| Compound | pIC50 |
| --- | --- |
| 2-methyl-2-[5-[(3S)-3-amino-5,5,7-trifluoro-2-oxo-1-[[4-(trifluoromethoxy)phenyl]methyl]-3,4-dihydro-1-benzazepin-8-yl]-1,3,4-oxadiazol-2-yl]propanenitrile and 2-methyl-2-[5-[(3R)-3-amino-5,5,7-trifluoro-2-oxo-1-[[4-(trifluoromethoxy)phenyl]methyl]-3,4-dihydro-1-benzazepin-8-yl]-1,3,4-oxadiazol-2-yl]propanenitrile [Example 2] | 7.66 |
| CC(C)(c1nnc(-c2cc3c(cc2F)C(F)(F)CC(N)C(=O)N3Cc2ccc(Oc3ccccc3)cc2)o1)S(C)(=O)=O (racemic) [Example 5, (3S)-3-amino-5,5,7-trifluoro-8-[5-(1-methyl-1-methylsulfonyl-ethyl)-1,3,4-oxadiazol-2-yl]-1-[(4-phenoxyphenyl)methyl]-3,4-dihydro-1-benzazepin-2-one and (3R)-3-amino-5,5,7-trifluoro-8-[5-(1-methyl-1-methylsulfonyl-ethyl)-1,3,4-oxadiazol-2-yl]-1-[(4-phenoxyphenyl)methyl]-3,4-dihydro-1-benzazepin-2-one] | 7.24 |
| COc1ccc(-c2ccc(CN3C(=O)[C@H](N)CC(F)(F)c4cc(F)c(-c5nnc(C(C)(C)S(C)(=O)=O)o5)cc43)cc2)cc1 (single isomer, unassigned) [Example 10] | 5.98 |
| CC(F)(F)c1ccc(-c2ccc(CN3C(=O)[C@H](N)CC(F)(F)c4cc(F)c(-c5nnc(C(C)(C)C#N)o5)cc43)cc2)nc1 (single isomer, unassigned) [Example 37] | 6.87 |
